Where two headings read alike, the source gives them in different places.
Columns and labels:
[1] = Clinical safety, Study ALZ1008; conditions: Japanese preclinical AD
Protocol: (§1) Safety and tolerability were assessed during the study by recording adverse events (AEs), clinically significant abnormalities, clinical laboratory tests, ECG, and vital signs and by performing physical, neurological, and MRI examinations. All enrolled participants were included in the safety analysis population.

[2] = Plasma and CSF pharmacokinetics, noncompartmental analysis, Study ALZ1008; type: in vivo, human; conditions: for Kp at 28 day: CSF / free plasma, observed plasma concentration, free fraction 6%, read-out: Ratio C28d (CSF)/free plasma, Mean (SD); for concentration at 28 day: CSF, read-out: C28d, CSF concentration at Day 28, Mean (SD); for AUC: read-out: Plasma AUCτ, Day 28, Mean (SD)
Protocol: Total apparent clearance for day 28 was calculated as dose/AUCτ.
The lower limit of quantification (LLOQ) was 1 ng/ml.

[3] = cited from earlier work
[4] = human, in vivo, 4 weeks
Protocol: as §1

[5] = Japanese preclinical AD, 10 mg q.d.
[6] = Japanese preclinical AD, 50 mg q.d.

Compound: C[C@@]1(c2cc(NC(=O)c3ccc(C#N)cn3)ccc2F)C=CSC(N)=N1 [atabecestat]
- incidence of SAE [1]: no reported incidence of SAE
- changes in QTcF ([1]; no changes from baseline > 30-ms): no clinically significant changes
- day at or before which steady-state PK was reached ([2]; Japanese participants, based on mean predose concentrations): ≤ 8 days
- DN AUCτ (dose normalization to 5 mg), Day 28, Mean (SD) [2, 5]: 555 (158) ng.h/mL
- DN Cmax (dose normalization to 5 mg), Day 28, Mean (SD) [2, 5]: 53.6 (14.1) ng/mL
- Plasma Tmax, Day 28, Median (Range) [2, 5]: 2.0 (1.0-3.0) h
- DN AUCτ (dose normalization to 5 mg), Day 28, Mean (SD) [2, 6]: 473 (255) ng.h/mL
- DN Cmax (dose normalization to 5 mg), Day 28, Mean (SD) [2, 6]: 51.6 (26.7) ng/mL
- Plasma Cmax, Day 28, Mean (SD) [2, 6]: 516 (267) ng/mL
- Plasma Tmax, Day 28, Median (Range) [2, 6]: 1.5 (1.0-2.0) h
- Kp at 28 day ([2]; human, oral, 10 mg, Japanese preclinical AD, 10 mg q.d.): 0.65
- Kp at 28 day ([2]; human, oral, 50 mg, Japanese preclinical AD, 50 mg q.d.): 0.83
- concentration at 28 day ([2]; human, oral, Japanese preclinical AD, 10 mg q.d.): 3.29 ng/mL
- concentration at 28 day ([2]; human, oral, Japanese preclinical AD, 50 mg q.d.): 19.1 ng/mL
- AUC ([2]; human, plasma, oral, Japanese preclinical AD, 10 mg q.d.): 1110 ng·h/mL
- Cmax ([2]; human, plasma, oral, Japanese preclinical AD, 10 mg q.d., read-out: Plasma Cmax, Day 28, Mean (SD)): 107 ng/mL
- AUC ([2]; human, plasma, oral, Japanese preclinical AD, 50 mg q.d.): 4730 ng·h/mL
- plasma atabecestat free fraction [3]: 6%
- TEAE incidence (genital herpes) [4]: 5.6%

Reference: publication PMC6106931 (Alzheimer's Research & Therapy, 2018)
